Data from patent EP0364584A1, “ANTIDOTE FOR ORGANIC PHOSPHORUS COMPOUND POISONING” (priority 1988, dated 1989).

How the values were obtained:
[1] = Acute toxicity, single administration, cats; conditions: cat, in vivo, im; Katzen, intramuskulär; read-out: LD50 (mg/kg) und deren zuverlässige Grenzen P = 0,05
Text: Die Toxizität des erfindungsgemässen Arzneimittels bei der einmaligen Einführung (die akute Toxizität) wurde an geschlechtsreifen Tieren (an Mäusen, Ratten, Katzen, Hunden) bestimmt. Die Analyse der experimentellen Angaben für Mäuse und Ratten wurde nach der Methode der Probit-Analyse nach Litchfield und Wilcoxon, und für Hunde und Katzen nach der Methode der Anreicherung der Frequenz nach Behrens durchgeführt.
Die Toxizitätsparameter LD50 wurden für Mause bei der intraperitonealen und subkutanen Einführung, für Ratten bei der subkutanen, intramuskulären und enteralen Einführung, für Katzen bei der intramuskulären Einführung und für Hunde bei der subkutanen Einführung bestimmt.

[2] = Acute toxicity, single administration, rats; conditions: rat, in vivo, Ratten, read-out: LD50 (mg/kg) und deren zuverlässige Grenzen P = 0,05
[3] = target: T1, Butyrylcholinesterase des Rattengehirns (Rattus norvegicus, UniProt Q9JKC1); experiment: Histochemical study of butyrylcholinesterase activity in rat brain; format: in vivo, Ratten
T1 construct: from tissue; host or cells: rat brain sections (glia, capillaries) after in vivo dosing
Text: (§1) Nach den histochemischen Methoden wurde der Einfluss des erfindungsgemässen Arzneimittels auf die Aktivität der Azetyl- und Buty rylcholinesterase des Rattengehirns untersucht und es wurde gezeigt, dass dieser von der Dosis des Arzneimittels und der Einführungszeit abhängt. […] Die Fermenthemmung wird bis 2 Stunden lang beobachtet, nachher folgt eine unbedeutende Aktivierung der Azetylcholinesterase, die bis 24 Stunden aufrechterhalten bleibt.
Es muss hervorgehoben werden, dass die beobachteten Veränderungen der Aktivität des Ferments von keinem deutlich ausgeprägten Charakter sind.

[4] = target: T2, Azetylcholinesterase des Rattengehirns (Rattus norvegicus, UniProt P37136); experiment: Histochemical study of acetylcholinesterase activity in rat brain; format: in vivo, Ratten
T2 construct: Azetyl- und Buty rylcholinesterase des Rattengehirns; from tissue; host or cells: rat brain sections after in vivo dosing
Text: as §1

T2 sequence (P37136 32-614): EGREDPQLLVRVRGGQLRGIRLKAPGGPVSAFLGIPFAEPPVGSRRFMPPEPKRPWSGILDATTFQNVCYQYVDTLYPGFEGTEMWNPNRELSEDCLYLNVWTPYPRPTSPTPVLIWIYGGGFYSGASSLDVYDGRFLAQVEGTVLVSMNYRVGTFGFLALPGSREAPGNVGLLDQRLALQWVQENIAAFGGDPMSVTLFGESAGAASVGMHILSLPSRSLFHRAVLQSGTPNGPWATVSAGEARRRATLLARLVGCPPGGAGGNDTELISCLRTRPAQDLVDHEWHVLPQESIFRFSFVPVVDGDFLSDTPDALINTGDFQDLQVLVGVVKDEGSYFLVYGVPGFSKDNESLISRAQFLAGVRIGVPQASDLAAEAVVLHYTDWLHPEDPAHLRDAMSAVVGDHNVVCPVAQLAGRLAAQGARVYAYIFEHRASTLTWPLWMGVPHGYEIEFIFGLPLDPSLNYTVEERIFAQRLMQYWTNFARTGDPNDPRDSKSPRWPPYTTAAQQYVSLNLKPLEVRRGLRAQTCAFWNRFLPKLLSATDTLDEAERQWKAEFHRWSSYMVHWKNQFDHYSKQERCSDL
T1 sequence (Q9JKC1 24-597): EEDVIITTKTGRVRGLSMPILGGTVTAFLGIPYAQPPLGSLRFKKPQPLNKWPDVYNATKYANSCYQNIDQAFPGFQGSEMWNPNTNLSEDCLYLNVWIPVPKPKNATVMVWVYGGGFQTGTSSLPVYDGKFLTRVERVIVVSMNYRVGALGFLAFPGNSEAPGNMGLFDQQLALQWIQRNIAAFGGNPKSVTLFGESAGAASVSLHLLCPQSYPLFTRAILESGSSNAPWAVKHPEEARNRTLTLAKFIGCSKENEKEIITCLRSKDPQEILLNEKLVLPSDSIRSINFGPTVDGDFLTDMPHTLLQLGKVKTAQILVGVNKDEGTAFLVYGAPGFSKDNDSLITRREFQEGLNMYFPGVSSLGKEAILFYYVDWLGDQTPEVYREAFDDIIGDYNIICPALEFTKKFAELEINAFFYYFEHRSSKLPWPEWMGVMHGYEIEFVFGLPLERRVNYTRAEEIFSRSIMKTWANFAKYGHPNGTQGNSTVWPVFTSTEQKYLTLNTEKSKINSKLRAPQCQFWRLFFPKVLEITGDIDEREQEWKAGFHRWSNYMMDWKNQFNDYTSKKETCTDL

Question: Which LD50 [1] does the source give for `C=CC[n+]1ccccc1C=NO` [das erfindungsgemässe Arzneimittel, N-Allyl-2-pyridinaldoxiinbromid] here?
Answer: 126 mg/kg

Question: What about the LD50 ([2]; ip, intraperitoneal) of the same compound?
Answer: 135 mg/kg

Question: What about the LD50 ([2]; po, enteral) of the same compound?
Answer: 260 mg/kg

Question: What about the LD50 ([2]; sc, subkutan) of the same compound?
Answer: 200 mg/kg

Question: And the “Aktivität der Butyrylcholinesterase in den Kapillaren aller Bildungen des Gehirns” value ([3]; bis 2 Tage lang, dose dependent, more marked at 50 mg/kg)?
Answer: unbedeutende Aktivierung des Ferments

Question: And the “Aktivität der Butyrylcholinesterase in den Nervenkittzellen des Gehirns” value ([3]; in allen untersuchten Konzentrationen)?
Answer: die Aktivität der Butyrylcholinesterase in den Nervenkittzellen des Gehirns nicht

Question: And the “Einfluss auf die Aktivität der Azetyl- und Butyrylcholinesterase des Rattengehirns” value ([4]; Dosis 5 mg/kg, histochemical)?
Answer: keine Abweichung der Fermentaktivität von der Norm

Question: And the “Einfluss auf die Aktivität der Azetylcholinesterase” value ([4]; Dosis 20 mg/kg, except white matter of hemispheres and Formatio reticularis neurons (inhibition 30 min bis 2 Stunden))?
Answer: verändert es auch im wesentlichen die Aktivität der Azetylcholinesterase nicht

Question: And the “Einfluss auf die Aktivität der Azetylcholinesterase” value ([4]; Dosis 50 mg/kg, several brain structures, inhibition bis 2 Stunden, then slight activation bis 24 Stunden)?
Answer: deutlicher ausgeprägte Veränderungen der Azetylcholinesteraseaktivität

Question: What about the “Aktivität der Azetylcholinesterase in den Neuronen der Grosshirnrinde” value ([4]; Dosis 20 und 50 mg/kg) of the same compound?
Answer: keine Veränderungen der Aktivität der Azetylcholinesterase festgestellt
